# Tested on: PARP PARylation in HeLa cells
# Experiment: PARylation assay in HeLa cells
# Type: cell-based
# Conditions: H2O2-provoked DNA damage
substance,measurement,value
"10-(2-hydroxyethyl)-2,2-dimethyl-2,3,5,10-tetrahydro-[1,2]diazepino[3,4,5,6-def]carbazol-6(1H)-one [Compound 67]",EC50,0.247 µM
